# Measurements as given in ChEMBL document CHEMBL1155817, “Hanultarin, a cytotoxic lignan as an inhibitor of actin cytoskeleton polymerization from the seeds of Trichosanthes kirilowii” (Bioorg Med Chem, 2008).
# Activity calls are given as the source filed them. The calls are words filed in the database; no cut-off is given here.
# Tests used:
# HaCaT [1] = assay: Inhibition of actin polymerization in human HaCaT cells assessed as aggregate-like structure at 1 ug/mL by immunofluorescence technique; assay type: cell-based
# [2] = Cytotoxicity against mouse B16F1 cells after 48 hrs by SRB assay; assay type: functional, cell-based; conditions: B16-F1, 48 h
# SK-MEL-2 = assay: Cytotoxicity against human SK-MEL-2 cells after 48 hrs by SRB assay; assay type: functional, cell-based; conditions: SK-MEL-2, 48 h
# HaCaT [3] = assay: Inhibition of actin polymerization in human HaCaT cells assessed as aggregate-like structure at 12 ug/mL by immunofluorescence technique; assay type: cell-based
# A549 = assay: Cytotoxicity against human A549 cells after 48 hrs by SRB assay; assay type: functional, cell-based; conditions: A549, 48 h
# HaCaT [4] = assay: Inhibition of actin polymerization in human HaCaT cells assessed as aggregate-like structure by immunofluorescence technique; assay type: cell-based
# HaCaT [5] = assay: Inhibition of actin polymerization in human HaCaT cells assessed as aggregate-like structure at 3.5 ug/mL by immunofluorescence technique; assay type: cell-based
# HaCaT [6] = assay: Inhibition of actin polymerization in human HaCaT cells assessed as aggregate-like structure at 40 ug/mL by immunofluorescence technique; assay type: cell-based
SMILES,Activity (HaCaT [1]),IC50 [2] [µg/mL],IC50 (SK-MEL-2) [µg/mL],Activity (HaCaT [3]),IC50 (A549) [µg/mL],Activity (HaCaT [4]),Activity (HaCaT [5]),Activity (HaCaT [6])
C=C1[C@@H](C)[C@H]2[C@H](Cc3ccccc3)NC(=O)[C@]23[C@H](OC(C)=O)/C=C/[C@@](C)(O)C(=O)[C@@H](C)C/C=C/[C@H]3[C@@H]1O,Active,–,–,–,–,–,–,–
COc1cc(/C=C/C(=O)OC[C@H](Cc2ccc(O)c(OC)c2)[C@H](COC(=O)/C=C/c2ccc(O)c(OC)c2)Cc2ccc(O)c(OC)c2)ccc1O,–,12,10,Active,12,–,–,–
COc1cc(/C=C/C(=O)OC[C@H](Cc2ccc(O)c(OC)c2)[C@H](CO)Cc2ccc(O)c(OC)c2)ccc1O [HANULTARIN],–,13,3,–,3,Dose-dependent effect,Active,–
COc1cc([C@H]2OC(=O)[C@H]3[C@@H]2CO[C@@H]3c2ccc(O)c(OC)c2)ccc1O,–,13,20,–,> 40,–,–,inactive
COc1cc([C@@H]2OC[C@@H]3[C@H]2CO[C@H]3c2ccc(O)c(OC)c2)ccc1O [(+)-PINORESINOL],–,> 40,> 40,–,> 40,–,–,inactive
COc1cc(C[C@@H](CO)[C@H](CO)Cc2ccc(O)c(OC)c2)ccc1O [(+)-SECOISOLARICIRESINOL],–,> 40,> 40,–,> 40,–,–,inactive
